Experimental data: article PMC11434960, “Evaluation of [^68Ga]Ga-DOTA-AeK as a Potential Imaging Tool for PET Imaging of Cell Wall Synthesis in Bacterial Infections” (Pharmaceuticals, 2024)
“Also recorded” adds a separate entry of the source. Like-named read-outs stand apart in the source and are kept apart here. Starred links: 1 amine or outer side, 2 acyl side, 3 side chain; linkers in the order of their positions; H or OH if unused. Non-standard residues stand in square brackets, D forms with d. Residues, ends and D or L forms follow the SMILES beside them. *: point of attachment. DOTA = O=C(O)CN1CCN(CC(=O)O)CCN(CC(=O)*)CCN(CC(=O)O)CC1; d(γGlu) = O=C(O)[C@@H](CCC(=O)[*:2])N[*:1]

How the values were obtained:
[1] = assay type: physicochemical
Protocol: The compound hydrophobicity was determined using the octanol–water partition coefficient “shake flask method” described by Lambidis et al.. In brief, 100 µL of purified [^68Ga]Ga-DOTA-AeK was added to 400 µL of ultrapure water. The aqueous solution was added to an equal volume of 1-octanol (Sigma-Aldrich, Darmstadt, Germany), and the mixture was mechanically shaken for approximately 3 min at room temperature. The sample was centrifuged at 16,211 g for 5 min using a Digicen 21 R centrifuge (Orto Alresa, Madrid, Spain). The aqueous and organic phases of the sample were separated, and samples from each phase were analyzed using a dose calibrator. The logarithmic partition coefficient, Log P, was calculated using the following formula:Log P = Log [(counts in octanol/counts in water)](1)

[2] = assay type: in vitro ADME
Protocol: The plasma protein binding filter assay described by Müller et al. was adopted. Before the experiment, Amicon® Ultra-0.5 centrifugal 10 kDa MWCO filter units (Merck, Darmstadt, Germany) were pre-washed with 200 µL of phosphate-buffered saline (PBS) for 20 min at 18,611 g using the Microfuge 16 centrifuge (Beckman Coulter Life Sciences, Brea, CA, USA). Subsequently, 800 µL of plasma was spiked with 200 µL of purified [^68Ga]Ga-DOTA-AeK, vortexed for 3 s, and incubated for 120 min at 37 °C. For radioanalysis, a 100 µL plasma sample was taken at different time intervals (30, 60, and 120 min), diluted (1:1) with PBS, aliquoted into filter units, and centrifuged at 14,800 rpm for 20 min. A similar procedure was carried out in PBS (140 mM NaCl, 10 mM phosphate buffer, and 3 mM KCl, pH 7.4) as a control. After centrifugation, each filter unit was washed by adding 100 µL of PBS (140 mM NaCl, 10 mM phosphate buffer, and 3 mM KCl, at pH 7.4, and centrifuged as described above. The counts of the filtrate fraction (representing unbound compound) and on the filter (protein-bound compound) were measured using a Capintec Captus 4000E well counter (Florham Park, NJ, USA). The percentage of the protein-bound radiotracer was calculated using the following equation:% Protein bound = [counts in filter ÷ total counts (filtrate fraction+ filter)] × 100(2)

E. coli [3] = assay: Bacterial cell uptake of radiotracer in live and heat-killed cultures; assay type: cell-based, Escherichia coli; settings: 37 °C
Protocol: (§1) Overnight bacterial cell cultures of E. coli or S. aureus were grown in Tryptic Soy Broth (TSB) medium at 37 °C. The […] McFarland standard was prepared using DEN-18 McFarland Densitometer (Biosan, Riga, Latvia). For control studies, the same amount of bacterial culture was heat-killed via 30 min incubation at 90 °C. The culture viability was confirmed using agar plating with overnight incubation. All tests were initiated by adding 4.1 ± 1.23 MBq of [^68Ga]Ga-DOTA-AeK product solution (4.86 ± 1.45 GBq/µmol) to 1.0 mL of the bacterial suspension (1.8 × 10^8 cells/mL), and mixtures were maintained while shaking at 37 °C. At specific time intervals (10, 60, and 120 min), samples of the suspension were centrifuged at 16,211 g for 10 min (Digicen 21R, United Scientific, Goodwood, South Africa), and the supernatant was transferred into a plastic tube. The pellet was washed with 3 mL of PBS (140 mM sodium chloride, 10 mM phosphate buffer, and 3 mM potassium chloride, pH 7.4) and centrifuged at 16,211 g for 10 min. […] The radioactivity in the supernatant and pellet fraction were measured using an automatic gamma counter (Hidex AMG, LabLogic, Turku, Finland). The percentile of [^68Ga]Ga-DOTA-AeK cell uptake was calculated as follows:Uptake (%) = [counts in cell pellet ÷ total counts (cell pellet + supernatants)] × 100(3)

S. aureus [4] = assay: as above; assay type: cell-based, Staphylococcus aureus; settings: 37 °C
Protocol: as §1

[5] = assay type: in vivo, BALB/c mice; settings: mouse, in vivo, iv, Ex vivo organ biodistribution
Protocol: (§2) Six-to-eight-week-old mixed-gender BALB/c mice (20.0 ± 2.1 g) were utilized. Animals were pre-grouped (two mice/cage) into individually ventilated cages (IVC, Tecniplast, Buguggiate, Italy) and kept under standard housing conditions (22 ± 2 °C, 55 ± 10% humidity, 15 ± 5 Pa, and 12 h light/dark cycles) with food and water being provided ad libitum. Each experimental group consisted of 5 animals.
(§3) A thigh muscle mouse model of infection and inflammation was developed for imaging purposes by adopting procedures from a previous study with some modifications. In brief, animals were inoculated intramuscularly (right hind leg) with 1.5 × 10^7 colony forming units (CFU)/mL of S. aureus or E. coli suspended in 100 µL of culture media. To induce sterile inflammation, the same mice received 100 µL of a turpentine oil solution intramuscularly into the left hind leg. Infection was allowed to develop for 3–5 days, which is typical for a model of chronic infections, and a health check, including monitoring of the infection and inflammation sites, was conducted. At 3 and 5 days after the inoculations, all animals underwent whole-body [^68Ga]Ga-DOTA-AeK microPET/CT imaging, and after euthanasia, a complete ex vivo organ tissue biodistribution radioactive assay was performed.
(§4) A total volume of 100 µL of [^68Ga]Ga-DOTA-AeK (7.4 ± 2.0 MBq, 5% EtOH/PBS, pH 7.0) was administered as an intravenous bolus via the tail vein. At the same time, the animals were kept anesthetized, (4% isoflurane in oxygen for induction and 1.5–2.5% for maintenance). Non-invasive, whole-body microPET/CT imaging was performed using a Mediso nanoScan® PET/CT scanner (Budapest, Hungary). A previously described, image acquisition was performed. The PET/CT imaging procedure consisted of static whole-body scans per animal commencing at 60 min post-injection. The imaging protocol included the X-ray topogram (30 s) to ascertain the correct animal placement followed by CT image acquisition (4–5 min) and 20 min long PET image acquisition. Image reconstruction and analysis were performed as previously described.
(§5) After PET/CT imaging, the mice were euthanized via cervical dislocation while still under anesthesia. The different organs (spleen, pancreas, stomach, intestine, kidneys, liver, heart, lung, muscle, and femur) were collected into pre-weighed tubes. The radioactivity of each sample was determined using an automatic gamma counter (Hidex AMG, Turku, Finland). Results were expressed as a percentage of injected dose per gram organ (%ID/g). Subsequently, both muscles on the left and right thighs were fixed in 4% paraformaldehyde and submitted to the University of Pretoria, Department of Paraclinical Science, for hematoxylin and eosin (H&E) and Gram staining. Infection and inflammation tissue analysis was performed by a qualified pathologist.

E. coli [6] = assay type: in vivo, BALB/c mice
Protocol: as §2, §3, §4, §5

[7] = assay type: in vivo, BALB/c mice; settings: mouse, in vivo, iv, Ex vivo organ biodistribution; remark: listed apart in the source
Protocol: as §2, §3, §4, §5

S. aureus [8] = assay type: in vivo, BALB/c mice
Protocol: as §2, §3, §4, §5

E. coli [9] = assay: Bacterial uptake and incorporation of AeK-NBD, flow cytometry; assay type: cell-based, Escherichia coli
Protocol: (§6) Bacterial cell cultures (either live or heat-killed) of E. coli or S. aureus (1.0 McFarland standard) were prepared as described above. For bacterial staining, 2.0 μL (100 mM in DMSO) of fluorescent AeK-NBD was added to 198 μL of bacterial culture (7.7 × 10^7 cells/mL), and cells were counterstained with 2.0 μL (10 μM in DMSO) of membrane-permeable DNA Vybrant DyeCycle (VDC) Ruby dye (Thermo Fisher Scientific, Waltham, MA, USA). All cultures were incubated at 37 °C, and samples were taken at different intervals (10, 30, and 60 min) to perform flow cytometric analysis (Cytoflex, Beckman Coulter Life Sciences, Brea, CA, USA). AeK-NBD was excited with a 488 nm laser, and the emitted fluorescence was collected using a 540/30 nm band pass filter, as carried out previously. The VDC Ruby dye was excited with a 638 nm laser, and the emitted fluorescence was collected using a 712/25 nm band pass filter. No noticeable spillover was observed when VDC Ruby ‘only’ and AeK-NBD ‘only’ controls were used as controls for possible fluorescence spillover. […] The NBD-AeK median fluorescence intensity (MFI) of VDC Ruby-positive bacteria was reported. […]
(§7) Sample preparation of E. coli and S. aureus suspensions for confocal fluorescence microscopy imaging involved immediate staining with AeK-NBD and membrane-permeable DNA VDC Ruby dye for 10 min, as described in the previous section. […]

S. aureus [10] = assay: as above; assay type: cell-based, Staphylococcus aureus
Protocol: as §6, §7

E. coli [11] = system: E. coli; design: method as in PMID 3891732; settings: in vitro; cited from earlier work

Compound: C[C@H](N)C(=O)N[C@H](CCC(=O)N[C@@H](CCCCNC(=O)CN1CCN(CC(=O)O)CCN(CC(=O)O)CCN(CC(=O)O)CC1)C(=O)O)C(=O)O [[^68Ga]Ga-DOTA-AeK, metal not drawn] (H-Ala-[d(γGlu)]-Lys(DOTA)-OH)
- logP [1]: -1.08
- tracer recovered within the aqueous phase ([1]; octanol/water partition, n = 3): 92.3 ± 0.04%
- protein-bound fraction [2]: approximately 10.18 ± 6.9%
- cellular uptake, live versus heat-killed bacteria (E. coli [3]; any time point up to 120 min): No significant increase in radioactivity above the heat-killed bacterial cells
- radiotracer detected in the medium (E. coli [3]; up to 120 min): ~ 98%
- cellular uptake, live versus heat-killed bacteria (S. aureus [4]; any time point up to 120 min): No significant increase in radioactivity above the heat-killed bacterial cells
- radiotracer detected in the medium (S. aureus [4]; up to 120 min): ~ 98%
- tissue uptake at 1 h ([5]; Brain): 0.1 %ID/g
- tissue uptake at 1 h ([5]; Heart): 0.8 ± 0.4 %ID/g
- tissue uptake at 1 h ([5]; Inflammation): 0.9 %ID/g
- tissue uptake at 1 h ([5]; Liver): 1.1 ± 0.2 %ID/g
- tissue uptake at 1 h ([5]; Lungs): 1 ± 0.1 %ID/g
- tissue uptake at 1 h ([5]; Muscle): 0.7 ± 0.4 %ID/g
- tissue uptake at 1 h ([5]; Pancreas): 0.6 ± 0.3 %ID/g
- tissue uptake at 1 h ([5]; Thyroid): 1 ± 0.7 %ID/g
- uptake in the infectious foci (PET/CT and ex vivo tissue counting) (E. coli [6]; E. coli, Day 3 and Day 5 post-inoculation, 60 min after iv injection): no significant uptake in the infectious foci
- clearance route (E. coli [6]; mouse, in vivo): rapid clearance mainly via renal excretion
- Ex vivo organ biodistribution, Brain (E. coli [6]; mouse, in vivo, iv, 1 h): 0.2 ± 0.2 %ID/g
- Ex vivo organ biodistribution, Heart (E. coli [6]; mouse, in vivo, iv, 1 h): 1.6 ± 1.3 %ID/g
- Ex vivo organ biodistribution, Kidneys (E. coli [6]; mouse, in vivo, iv, 1 h): 2.9 ± 0.7 %ID/g
- Ex vivo organ biodistribution, Liver (E. coli [6]; mouse, in vivo, iv, 1 h): 1.2 ± 0.4 %ID/g
- Ex vivo organ biodistribution, Lungs (E. coli [6]; mouse, in vivo, iv, 1 h): 2.0 ± 0.4 %ID/g
- tissue uptake at 1 h ([7]; Brain): 0.1 %ID/g
- tissue uptake at 1 h ([7]; Intestines): 1.2 ± 1.9 %ID/g
- tissue uptake at 1 h ([7]; Stomach): 0.7 ± 0.5 %ID/g
- uptake in the infectious foci (PET/CT and ex vivo tissue counting) (S. aureus [8]; S. aureus, Day 3 and Day 5 post-inoculation, 60 min after iv injection): no significant uptake in the infectious foci
- clearance route (S. aureus [8]; mouse, in vivo): rapid clearance mainly via renal excretion
- Ex vivo organ biodistribution, Adipose (S. aureus [8]; mouse, in vivo, iv, 1 h): 1.9 ± 0.3 %ID/g
- Ex vivo organ biodistribution, Brain (S. aureus [8]; mouse, in vivo, iv, 1 h): 0.2 ± 0.0 %ID/g
- Ex vivo organ biodistribution, Femur (S. aureus [8]; mouse, in vivo, iv, 1 h): 2.0 ± 0.2 %ID/g
- Ex vivo organ biodistribution, Heart (S. aureus [8]; mouse, in vivo, iv, 1 h): 3.7 ± 0.5 %ID/g
- Ex vivo organ biodistribution, Infection (S. aureus [8]; mouse, in vivo, iv, 1 h): 0.9 ± 0.3 %ID/g
- Ex vivo organ biodistribution, Intestines (S. aureus [8]; mouse, in vivo, iv, 1 h): 1.8 ± 0.8 %ID/g
- Ex vivo organ biodistribution, Kidneys (S. aureus [8]; mouse, in vivo, iv, 1 h): 7.0 ± 0.1 %ID/g
- Ex vivo organ biodistribution, Pancreas (S. aureus [8]; mouse, in vivo, iv, 1 h): 2.3 ± 0.2 %ID/g
- Ex vivo organ biodistribution, Spleen (S. aureus [8]; mouse, in vivo, iv, 1 h): 1.6 ± 0.6 %ID/g
- Ex vivo organ biodistribution, Stomach (S. aureus [8]; mouse, in vivo, iv, 1 h): 1.1 ± 0.4 %ID/g

Compound: L-Ala-γ-D-Glu-L-Lys-N-7-nitro-2,1,3-benzoxadiazol-4-yl [AeK-NBD]
- time at which bacterial incorporation was observed (E. coli [9]; E. coli, 37 °C): 10 min
- fluorescence intensity in live cells (flow cytometry) (E. coli [9]; live E. coli, significantly decreased in heat-killed cultures (p < 0.05), up to 60 min): high fluorescence intensity
- time at which bacterial incorporation was observed (S. aureus [10]; S. aureus, 37 °C): 10 min
- fluorescence intensity in live cells (flow cytometry) (S. aureus [10]; live S. aureus, significantly decreased in heat-killed cultures (p < 0.05), up to 60 min): high fluorescence intensity

Compound: L-Ala-γ-D-Glu-[^3H]A2pm
- bacterial uptake / utilisation in PG recycling pathway (E. coli [11]): successful in vitro integration; also recorded: effectively utilized by E. coli

Compound: ^3H-labeled disaccharide-(L-Ala-D-Glu-meso-A2pm) tripeptide
- bacterial uptake / utilisation in PG recycling pathway (E. coli [11]): lack of bacterial uptake and internalization
